Legend:
[1] = target: T1, Rat aorta α1D (Rattus norvegicus, UniProt P23944); experiment: Functional antagonism of noradrenaline-induced contraction, rat aorta strips; type: cell-based, Sprague Dawley rats; conditions: noradrenaline as agonist, 30 minutes incubation, Schild plot; read-out: Functional affinity pKB, Rat aorta α1D (converted)
T1 construct: from tissue; host or cells: rat thoracic aorta, helicoidal strips
T1 sequence (P23944 1-561): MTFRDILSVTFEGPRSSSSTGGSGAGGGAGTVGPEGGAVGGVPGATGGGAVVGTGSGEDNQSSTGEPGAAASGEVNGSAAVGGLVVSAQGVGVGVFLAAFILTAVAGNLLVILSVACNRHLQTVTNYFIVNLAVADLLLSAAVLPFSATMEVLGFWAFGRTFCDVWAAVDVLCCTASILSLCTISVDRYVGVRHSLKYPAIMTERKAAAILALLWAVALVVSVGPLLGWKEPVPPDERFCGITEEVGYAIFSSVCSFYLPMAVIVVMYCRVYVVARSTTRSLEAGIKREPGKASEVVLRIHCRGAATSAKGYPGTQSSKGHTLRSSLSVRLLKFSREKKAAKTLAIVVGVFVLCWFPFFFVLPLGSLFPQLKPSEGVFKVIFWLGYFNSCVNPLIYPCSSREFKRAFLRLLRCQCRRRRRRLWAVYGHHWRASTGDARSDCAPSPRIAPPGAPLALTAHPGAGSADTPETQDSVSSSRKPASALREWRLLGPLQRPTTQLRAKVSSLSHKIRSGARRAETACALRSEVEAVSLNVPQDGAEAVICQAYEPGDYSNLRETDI
Description: In vitro assessment of functional antagonism for α1-adrenoceptor subtypes
Thoracic aorta was obtained from Sprague Dawley rats, cut in helicoidal strips and placed in Krebs solution containing desmethylimipramine (0.1 µM), corticosterone (1 µM), propranol (1 µM) and yohimbine (0.1 µM). The strips were mounted for isotonic tension recording in an organ bath containing the above Krebs buffer enriched and aerated constantly with 95% O2 and 5% CO2, maintained at 37°C and loaded with 1.5 g. After an equilibration period, the strips were primed twice with 10 µM noradrenaline, then concentration/response-to-the-agonist curves were constructed before (basal) and after 30 minutes incubation with single antagonist concentrations (response). The Schild-plot parameters were evaluated by linear-regression analysis according to Tallarida and Murray (Manual of Pharmacologic Calculations with Computer Programs, 53-56, Springer-Verlag).

[2] = target: T2, human recombinant α1b adrenoceptor (Homo sapiens, UniProt P35368); experiment: Radioligand binding ([3H]prazosin) on membranes of CHO cells expressing cloned α1b adrenoceptor; conditions: human cloned receptor, CHO cell membranes, 0.2 nM [3H]prazosin; read-out: Affinity (Ki) α1b
T2 construct: expressed in transfected cells; host or cells: CHO cells (membranes)
T2 sequence (P35368 1-520): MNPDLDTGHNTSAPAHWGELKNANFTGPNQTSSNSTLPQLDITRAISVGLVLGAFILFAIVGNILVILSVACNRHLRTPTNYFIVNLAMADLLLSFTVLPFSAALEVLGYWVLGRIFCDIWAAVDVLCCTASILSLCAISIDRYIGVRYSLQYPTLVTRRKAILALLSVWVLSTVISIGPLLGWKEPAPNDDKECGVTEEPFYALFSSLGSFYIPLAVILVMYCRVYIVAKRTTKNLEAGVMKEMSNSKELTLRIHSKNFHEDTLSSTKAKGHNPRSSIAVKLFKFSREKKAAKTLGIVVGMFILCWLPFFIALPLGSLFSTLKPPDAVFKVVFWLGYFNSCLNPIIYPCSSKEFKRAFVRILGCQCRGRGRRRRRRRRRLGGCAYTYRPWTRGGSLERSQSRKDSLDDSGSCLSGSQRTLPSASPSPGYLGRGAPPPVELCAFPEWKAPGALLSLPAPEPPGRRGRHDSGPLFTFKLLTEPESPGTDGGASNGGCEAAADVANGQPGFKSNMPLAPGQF
Description: The determination of affinity for cloned subtypes of human α1 adrenergic receptors was performed in membranes from CHO cells (chinese hamster ovary cells) transfected by electroporation with DNA expressing the genes encoding each α1-adrenoceptor subtype, namely α1a, α1b and α1d.. Cloning and stable expression of the human α1-adrenoceptor gene were performed as previously described (Testa et al., Pharmacol. Comm. 6, 79-86 (1995)). CHO cell membranes were incubated in […] Tris pH 7.4 with 0.2 nM [^3H]prazosin, in a final volume of 1.02 ml for 30 minutes at 25°C, in the absence or presence of competing drugs (1 pM-10 µM). Non-specific binding was determined in the presence of 10 µM phentolamine. Incubation was stopped by addition of ice-cold Tris buffer and rapid filtration through 0.2% polyethyleneimine pretreated Schleicher & Schuell GF52 filters. Genomic clone G-21 coding for the human 5-HT1A-serotoninergic receptor was stably transfected in a human cell line (HeLa) (Fargin et al., J. Biol. Chem. 284, 14848-14852 (1989)). The HeLa cells were grown as monolayers in Dulbecco's modified Eagle's medium (DMEM), supplemented with 10% foetal calf serum and gentamicin (100 µg/ml), 5% CO2, at 37°C. The cells were detached from the growth flask at 95% confluence by a cell scraper and were lysed in ice-cold 5 mM Tris and 5-mM EDTA buffer (pH 7.4). The homogenates were centrifuged at 40000 x g x 20 minutes and the membranes were re-suspended in a small volume of ice-cold 5 mM Tris and 5-mM EDTA buffer (pH 7.4) and immediately frozen and stored at -70°C until use. On the experiment day, the cell membranes were re-suspended in a buffer containing 50 mM Tris (pH 7.4), 2.5 mM MgCl2, 10 µM pargyline (Fargin et al., Nature 335, 358-360 (1988)). […] The incubation was stopped by addition of ice-cold Tris buffer and rapid filtration through 0.2%-polyethyleneimine-pretreated Schleicher & Schuell filters. The inhibition of specific binding of the radioligands by the drugs was analysed to estimate the IC50 value by using the non-linear curve-fitting programme Allfit (De Lean et al., Am. J. Physiol. 235, E97-E102 (1978)). The IC50 value was converted to an affinity constant (Ki) by the equation of Cheng & Prusoff (Biochem. Pharmacol. 22, 3099-3108 (1973)). Data were expressed as mean of Ki.

| Kb [1] | Ki [2] | SMILES |
| --- | --- | --- |
| 1.02 nM | 9.9 nM | O=C1CC2(CCCC2)CC(=O)N1CCN1CCN(c2cc(Cl)ccc2Cl)CC1 [Example 1, 8-{2-[4-(2,5-Dichlorophenyl)-1-piperazinyl]-ethyl}-8-azaspiro[4.5]decane-7,9-dione] |
|  | 119 nM | Cc1ccc(F)c(N2CCN(CCN3C(=O)CC4(CCCC4)CC3=O)CC2)c1 [Example 4, 8-{2-[4-(2-Fluoro-5-methylphenyl)-1-piperazinyl]-ethyl}-8-azaspiro[4.5]decane-7,9-dione] |
|  | 168 nM | Cc1ccc(C)c(N2CCN(CCN3C(=O)CC4(CCCC4)CC3=O)CC2)c1 [Example 5, 8-{2-[4-(2,5-Dimethylphenyl)-1-piperazinyl]-ethyl}-8-azaspiro[4.5]decane-7,9-dione] |
|  | > 1000 nM | O=C1CC2(CCCC2)CC(=O)N1CCN1CCN(c2cc(C(F)(F)F)ccc2F)CC1 [Example 6, 8-{2-[4-(2-Fluoro-5-trifluoromethylphenyl)-1-piperazinyl]-ethyl}-8-azaspiro[4.5]decane-7,9-dione] |
|  | 47.5 nM | O=C1CC2(CCCC2)CC(=O)N1CCN1CCN(c2cc(Br)ccc2Br)CC1 [Example 7, 8-{2-[4-(2,5-Dibromophenyl)-1-piperazinyl]-ethyl}-8-azaspiro[4.5]decane-7,9-dione] |
|  | 17 nM | N#Cc1ccc(Cl)cc1N1CCN(CCN2C(=O)CC3(CCCC3)CC2=O)CC1 [Example 8, 8-{2-[4-(5-Chloro-2-cyanophenyl)-1-piperazinyl]-ethyl}-8-azaspiro[4.5]decane-7,9-dione] |
|  | 10.1 nM | O=C1CC2(CCCC2)CC(=O)N1CCN1CCN(c2cc(F)ccc2Cl)CC1 [Example 9, 8-{2-[4-(2-Chloro-5-fluorophenyl)-1-piperazinyl]-ethyl}-8-azaspiro[4.5]decane-7,9-dione] |
|  | 448 nM | O=C1CC2(CCCC2)CC(=O)N1CCN1CCN(c2cc(I)ccc2Cl)CC1 [Example 10, 8-{2-[4-(2-Chloro-5-iodophenyl)-1-piperazinyl]-ethyl}-8-azaspiro[4.5]decane-7,9-dione] |
|  | 52.9 nM | O=C1CC2(CCCCC2)CC(=O)N1CCN1CCN(c2cc(Cl)ccc2Cl)CC1 [Example 11, 3-{2-[4-(2,5-Dichlorophenyl)-1-piperazinyl]-ethyl}-3-azaspiro[5.5]undecane-2,4-dione] |
|  | 83.6 nM | O=C1CC2(CCCC2)C(=O)N1CCN1CCN(c2cc(Cl)ccc2Cl)CC1 [Example 14, 2-{2-[4-(2,5-Dichlorophenyl)-1-piperazinyl]-ethyl}-2-azaspiro[4.4]nonane-1,3-dione] |
|  | 79.6 nM | O=C1CC2(CCC2)CC(=O)N1CCN1CCN(c2cc(Cl)ccc2Cl)CC1 [Example 15, 7-{2-[4-(2,5-Dichlorophenyl)-1-piperazinyl]-ethyl}-7-azaspiro[3.5]nonane-6,8-dione] |
|  | 13.1 nM | CC(CN1CCN(c2cc(Cl)ccc2Cl)CC1)N1C(=O)CC2(CCCC2)CC1=O (stereo not shown) [Example 16, 8-{2-[4-(2,5-Dichlorophenyl)-1-piperazinyl]-1-methylethyl}-8-azaspiro[4.5]decane-7,9-dione] |
|  | 37.6 nM | O=C1CC2(CCCC2)CC(=O)N1CCN1CCC(c2cc(Cl)ccc2Cl)CC1 [Example 17, 8-{2-[4-(2,5-Dichlorophenyl)-1-piperidinyl]-ethyl}-8-azaspiro[4.5]decane-7,9-dione] |
|  | 915 nM | CN(CCN1C(=O)CC2(CCCC2)CC1=O)CCN(C)c1cc(Cl)ccc1Cl [Example 18, N-(2,5-Dichlorophenyl)-N'-{2-(7,9-dioxo-8-azaspiro[4.5]decane-8-yl)-ethyl}-N,N'-dimethyl-1,2-diaminoethane] |
|  | 22.7 nM | O=C1CC2(CCCC2)CCN1CCN1CCN(c2cc(F)c(F)cc2F)CC1 [Example 24, 8-{2-[4-(2,4,5-Trifluorophenyl)-1-piperazinyl]-ethyl}-8-azaspiro[4.5]decane-7-one] |

| SMILES | Kb [1] | Ki [2] |
| --- | --- | --- |
| O=C1CCCC(=O)N1CCN1CCN(c2cc(Cl)ccc2Cl)CC1 [Example 2, 1-{2-[4-(2,5-Dichlorophenyl)-1-piperazinyl]-ethyl}-piperidinyl-2,6-dione] |  | 54.1 nM |
| CCC1(C)CC(=O)N(CCN2CCN(c3cc(Cl)ccc3Cl)CC2)C(=O)C1 [Example 13, 1-{2-[4-(2,5-Dichlorophenyl)-1-piperazinyl]-ethyl}-4-ethyl-4-methylpiperidinyl-2,6-dione] |  | 43.4 nM |
| O=C1CC2(C=CN1CCN1CCN(c3cc(Cl)ccc3Cl)CC1)CCCC2 [Example 20, 8-{2-[4-(2,5-Dichlorophenyl)-1-piperazinyl]-ethyl}-8-azaspiro[4.5]dec-9,10-en-7-one] |  | 15.8 nM |
